Data taken from US4123541A, “2-Aminomethyl-5-phenyloxazoles and the pharmaceutically acceptable salts thereof” (Mitsubishi Chemical Industries Limited, priority 1976, dated 1978).
Where two headings read alike, the source gives them in different places.

Columns and labels:
[1] = test system: squeak response of mouse to electrical stimulation of the tail root; test: Analgesic activity: (B) electrical stimulation method; type: in vivo, mice of ddY strain; conditions: ip, mice, Weil's method
Procedure: The analgesic activity of the 2-aminomethyl-5-phenyloxazoles was compared with that of aminopyrine.
(B) Electrical stimulation method
Five male mice of ddY strain, each weighing between 25 to 30 grams were used for each group.
Bipolar electrode was placed on the tail root of mouse. The mouse was stimulated with a square wave (5 m sec, 1 Hz), and the minimum voltage of squeak response was measured at 5, 10, 15, 30, 45 and 60 minutes after intraperitoneal administration of the test compound. Positive analgesic response was determined in cases where increase in the minimum voltage was observed. ED50 was calculated according to Weil's method. The acute toxicity values (LD50) of the […] were determined in the following manner: […]

[2] = test system: AcOH induced Writhing in Mice; test: Analgesic activity: (A) writhing syndrome induced by acetic acid; type: in vivo, mice of ddY strain; conditions: Mus musculus, sc, Litchfield-Wilcoxon's method
Procedure: (A) Writhing syndrome induced by acetic acid Six male mice of ddY strain, each weighing between 25 to 30 grams were used in the present experiment. […] Thereafter, the total number of writhings of a group was recorded for 20 minutes, and percent inhibition was calculated in comparison with the control. ED50 was calculated according to Litchfield-Wilcoxon's method.

[3] = test system: carageenin-induced rat paw inflammation; test: Anti-inflammatory activity: carrageenin-induced rat paw inflammation (edema), oral; type: in vivo, rats of Wistar-King strain; conditions: 3 hours after carrageenin, read-out: Anti-inflammatory Activity (carageenin-induced rat paw inflammation) Percent Inhibition of Swelling; for inhibition in vivo at 100 mg/kg: oral dose 100 mg/kg; for inhibition in vivo at 25 mg/kg: oral dose 25 mg/kg; for inhibition in vivo at 50 mg/kg: oral dose 50 mg/kg; for inhibition in vivo at 12.5 mg/kg: oral dose 12.5 mg/kg
Procedure: The anti-inflammatory activity of the 2-aminomethyl-5-phenyloxazoles was compared with that of aminopyrine.
Eight male rats of Wistar-King strain, each weighing between 120 to 150 grams, were used for each group. The hind paw of the rats was injected subcutaneously with 0.1 ml of 1% carrageenin suspension. The volume of the paw was measured plethysmographically 3 hours after the injection, and the difference in volume between the edematous foot and the normal foot was regarded as the degree of edema. Each percent inhibition was calculated in comparison with the control. The test compounds were administered orally 30 minutes before the injection of carrageenin.

[4] = Acute toxicity (LD50), mortality observed for 168 hours; conditions: mouse, in vivo, ip
Procedure: Bipolar electrode was placed on the tail root of mouse. The mouse was stimulated with a square wave (5 m sec, 1 Hz), and the minimum voltage of squeak response was measured at 5, 10, 15, 30, 45 and 60 minutes after intraperitoneal administration of the test compound. Positive analgesic response was determined in cases where increase in the minimum voltage was observed. ED50 was calculated according to Weil's method. The acute toxicity values (LD50) of the 2-aminoethyl-5-phenyloxazoles were determined in the following manner:
LD50 was calculated according to Weil's method.

[5] = mice, mortality for 168 hours, Weil's method

Structure (SMILES)	ED50 [1]	ED50 [2]	inhibition in vivo at 100 mg/kg [3]	LD50 at 168 h ([4]; read-out: LD50 in Mice)	inhibition in vivo at 25 mg/kg [3]	inhibition in vivo at 50 mg/kg [3]	LD50 at 168 h [4, 5]	inhibition in vivo at 12.5 mg/kg [3]
CN(C)Cc1ncc(-c2ccc(Cl)cc2)o1	77 mg/kg	78 mg/kg	7%	336 mg/kg	–	–	–	–
NCc1ncc(-c2ccc(Cl)cc2)o1	50 mg/kg	6 mg/kg	65%	476 mg/kg	25%	29%	–	–
CCCNCc1ncc(-c2cccc(Cl)c2)o1	–	–	32%	–	–	4%	283 mg/kg	–
CCNCc1ncc(-c2ccccc2Cl)o1	54 mg/kg	–	14%	141 mg/kg	–	–	–	–
CNCc1ncc(-c2ccccc2Cl)o1	–	–	14%	–	–	–	141 mg/kg	–
CNCc1ncc(-c2ccccc2)o1	32 mg/kg	10.1 mg/kg	48%	238 mg/kg	5%	40%	–	–
OCCN1CCN(Cc2ncc(-c3ccccc3)o2)CC1	–	–	6%	–	–	–	283 mg/kg	–
Cc1c(N(C)C)c(=O)n(-c2ccccc2)n1C [Aminopyrine, reference compound]	96 mg/kg	37 mg/kg	65%	–	23%	47%	270 mg/kg	9%
CNCc1ncc(-c2cccc(Cl)c2)o1	–	–	21%	–	–	–	283 mg/kg	–
OCCN1CCN(Cc2ncc(-c3ccc(Cl)c(Cl)c3)o2)CC1	–	–	14%	–	–	–	141 mg/kg	–
CNCc1ncc(-c2ccc(F)cc2)o1	–	–	55%	–	–	38%	141 mg/kg	–
OCCN1CCN(Cc2ncc(-c3ccc(F)cc3)o2)CC1	–	–	54%	–	–	8%	336 mg/kg	–
CCNCc1ncc(-c2ccc(Cl)c(Cl)c2)o1	–	–	68%	–	27%	56%	141 mg/kg	–
CCNCc1ncc(-c2ccccc2)o1	21.4 mg/kg	–	47%	141 mg/kg	–	23%	–	–
CCCNCc1ncc(-c2ccc(F)cc2)o1	54 mg/kg	–	53%	238 mg/kg	–	45%	–	–
CCNCc1ncc(-c2ccc(Br)cc2)o1	–	–	22%	–	–	–	168 mg/kg	–
OCCN1CCN(Cc2ncc(-c3ccc(Cl)cc3)o2)CC1	30.8 mg/kg	16 mg/kg	50%	283 mg/kg	27%	57%	–	6%
CCN(CC)Cc1ncc(-c2ccc(Cl)cc2)o1	–	–	44%	–	–	24%	238 mg/kg	–
NCc1ncc(-c2ccccc2Cl)o1	–	–	42%	–	28%	58%	283 mg/kg	–
CNCc1ncc(-c2ccc(Cl)cc2)o1	46 mg/kg	22 mg/kg	17%	141 mg/kg	–	–	–	–
CCCNCc1ncc(-c2ccc(Cl)cc2)o1	47 mg/kg	–	38%	566 mg/kg	–	24%	–	–
CCNCc1ncc(-c2ccc(Cl)cc2)o1	35 mg/kg	1.9 mg/kg	60%	283 mg/kg	43%	65%	–	16%
